Measurements taken from patent US7314720B2, “Method of diagnosing non-alcoholic steatohepatitis (nash) using molecular markers” (One Way Liver Genomic, S.L., priority 2002, dated 2008).

Test system: PHB1
Experiment: PHB1 level regulation in cultured rat hepatocytes (Western blot)
Format: cell-based
Conditions: for effect on PHB1 levels: 24 h incubation under standard conditions, 100 μM methionine or 4 mM AdoMet in culture media
Method: FIG. 5 illustrates PHB1 level regulation by AdoMet in cultured rat hepatocytes. PHB1 levels were measured in rat hepatocytes cultured for 12 or 24 hours in the presence or absence of 100 μM methionine, 4 mM AdoMet or 20 mM cycloleucine. Liver extracts (15 μg/lane) were analyzed by Western blotting using specific antibodies. To ensure equal loading, the membranes were stained with red Ponceau. A representative blot from three independent experiments is shown. Hepatocytes were isolated from male Wistar rats (200-250 g) by perfusion with collagenases, as previously described ([…]., et al., Gastroenterology, 1998, 114:364-371). Once isolated, hepatocytes were cultured according to García-Trevijano et al. […] Cell viability was measured by trypan blue exclusion, and no significant differences were observed between the controls and any of the different treatments performed in this study. Protein extraction and western blotting were performed as previously described ([…]., et al., Oncogene, 1995, 10:963-971; Ruiz, F., et al., Hepatology, 1998, 28:1051-1057). Briefly, equal amounts of protein (15 μg) were resolved in SDS/12.5% polyacrylamide gels. Proteins were electrophoretically transferred to nitrocellulose membranes. Membranes were probed with anti-MAT (Ruiz, F., et al., Hepatology, 1998, 28:1051-1057), anti-PHB1, anti-β ATPase and anti-COX I and II. A secondary antibody conjugated to horseradish peroxidase was used. Blots were developed by chemiluminescence (Dupont).

SMILES	effect on PHB1 levels	decrease of PHB1 in the absence of methionine (exogenous addition of 4 mM AdoMet after 12 hours culture in the absence of methionine)	down-regulation of PHB1 (20 mM CL added to culture medium)
C[S+](CC[C@H](N)C(=O)[O-])C[C@H]1O[C@@H](n2cnc3c(N)ncnc32)[C@H](O)[C@@H]1O (stereo partly shown) [AdoMet, S-adenosylmethionine]	no effect	prevented the decrease of PHB1	
NC1(C(=O)O)CCCC1 [CL, cycloleucine]			55%
CSCC[C@H](N)C(=O)O [methionine]	no effect		
